In PMC5340007 (BMC Cancer, 2017):

Tests used:
[1] = Plasma pharmacokinetics, each drug alone and in combination; conditions: selumetinib + dacarbazine arm
Text: When more than one maximum occurred, the reported value was assigned to the first occurrence.

[2] = Dose-limiting toxicity and maximum tolerated dose, phase I dose escalation; type: in vivo, human (patients with advanced solid tumors)
Text: Dose-limiting toxicities (DLTs) in the study were defined as those related to treatment and occurring within the first 28 days of therapy. Hematologic DLTs were defined as afebrile grade 4 neutropenia for >5 days, grade 4 neutropenia associated with fever, or grade 4 thrombocytopenia. Non-hematological DLTs were defined as any ≥ grade 3 adverse event (AE) for >7 days that could not be controlled to grade ≤2 with appropriate treatment.
In part B (dose expansion) of the study, an additional 12 evaluable patients received treatment at the combination MTDs.

[3] = cited from earlier work

SMILES	AUC(0–8) ([1]; plasma, dosed in combination, selumetinib 75 mg (N = 15), geometric mean (% CV))	MTD of selumetinib ([2]; in combination with dacarbazine 1000 mg/m^2 every 21 days) [mg BID]	MTD of selumetinib ([2]; in combination with docetaxel 75 mg/m^2 every 21 days) [mg BID]	MTD of selumetinib ([2]; plus docetaxel with ppG-CSF, defined in part A) [mg BID]	recommended phase II dose of selumetinib ([2]; plus docetaxel without ppG-CSF) [mg BID]	MTD of selumetinib ([2]; with docetaxel 75 mg/m^2 without ppG-CSF) [mg BID]	recommended dose for selumetinib monotherapy ([3]; monotherapy)	monotherapy MTD ([3]; selumetinib monotherapy) [mg BID]	Pharmacokinetic parameters administered alone vs in combination [1]	Plasma concentration-time profiles administered alone vs in combination [1]
Cn1cnc2c(F)c(Nc3ccc(Br)cc3Cl)c(C(=O)NOCCO)cc21 [Selumetinib]	4544 (45.42) ng•h/mL	75	75	75	75	75	75 mg twice daily (BID)	75		
CN(C)/N=N/c1[nH]cnc1C(N)=O [Dacarbazine]									similar	similar
